Results published in patent publication US20100298402A1, “STILBENE DERIVATIVES AS PSTAT3/IL-6 INHIBITORS” (ORCHID RESEARCH LABORATORIES LIMITED, priority 2007, published 2010).

Key:
[1] = test system: IL-6 in supernatant of NCIH 460 cells; experiment: Measuring IL-6 in culture supernatants (ELISA); type: cell-based; conditions: Homo sapiens, NCI-H460, 5 hours incubation
[2] = test system: HCT 116 (colon), NCIH460 (lung) and U251 (glioma) cell lines; experiment: Anti-cancer screen (MTT growth inhibition, 48 hours); type: cell-based; conditions: Homo sapiens; HCT 116, NCIH460 and U251 cell lines; MTT after 48 hours of incubation;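 also: mean GI50 across the three cell lines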
Procedure: The experimental drugs were screened for anti-cancer activity in three cell lines using five concentrations for each compound. The cell lines—HCT 116 (colon), NCIH460 (lung) and U251 (glioma) were maintained in DMEM containing 10% fetal bovine serum. 96-well microtiter plates are inoculated with cells in 100 μL of cell suspension (5×10^4 cells/mL) for 24 hours at 37° C., 5% CO2, 95% air and 100% relative humidity. A separate plate with these cell lines is also inoculated to determine cell viability before the addition of the compounds (T0)
Following 24-hour incubation, test compounds were added to the 96 well plates. Each plate contains one of the above cell lines and the following samples in triplicate: five different dilutions (0.01, 0.1, 1, 10 and 100 μM) of four test compounds, appropriate dilutions of a cytotoxic standard and growth medium (untreated) wells. Test compounds were dissolved in DMSO to prepare 20 mM stock solutions on the day of drug addition and serial dilutions were carried out in complete growth medium at 2× strength, such that 100 μL added to the wells gave final concentrations (0.01, 0.1, 1, 10 and 100 μM) in the well. SAHA was used as the standard drug in these experiments.
For T0 measurement, 24 hours after seeding the cells, 20 μL of 3-(4,5-dimethyl-2-thiazolyl)-2,5-diphenyl-2H-tetrazolium (MTT) solution per well was added to the ‘T0’ plate and incubated for 3 hours at 37° C. in a CO2 incubator. The plate containing cells and test compounds was treated similarly after 48 hours of incubation. After 3 hours of MTT addition, well contents were aspirated carefully followed by addition of 150 μL DMSO per well. Plates were agitated to ensure dissolution of the formazan crystals in DMSO and absorbance was read at 570 nm (A570).
Percent growth (PG) is calculated relative to the control and zero measurement wells (T0) as follows:
PG values are plotted against drug concentration to derive the following: GI50 is the concentration required to decrease PG by 50% vs control; TGI is the concentration required to decrease PG by 100% vs control and LC50 is the concentration required to decrease PG by 50% vs T0. (Mosmann T. Rapid colorimetric assay for cellular growth and survival: application to proliferation and cytotoxicity assays. (J. Immunol. Methods. 1983, 65 (1-2), 55-63; Anne Monks et al); feasibility of high-flux anticancer drug screen using a diverse panel of cultured human tumor cell lines”. (JNCI, Vol. 83, No. 11, 1991). Results for growth inhibition of synthesized compounds are given in Table-1.

Row | GI50 [2] | Structure (SMILES) | inhibition at 10 µM [1]
1 | 4.1 µM | COC(=O)/C(=C/c1cc(OC)cc(OC)c1)c1ccc(OCC(O)CNCc2ccc(OC)cc2OC)cc1 (stereo not drawn) [Example 3, 2-{4-[3-(2,4-Dimethoxybenzylamino)-2-hydroxypropoxyl]phenyl}-3-(3,5-dimethoxyphenyl)acrylic acid methyl ester] | 67%
2 | 32.4 µM | COC(=O)/C(=C/c1cc(OC)cc(OC)c1)c1ccc(OCC(O)CNCc2ccc(OC(F)(F)F)cc2)cc1 (stereo not drawn) [Example 4] | –
3 | 3.1 µM | COC(=O)/C(=C/c1cc(OC)cc(OC)c1)c1ccc(OCC(O)CNCCOc2ccccc2OC)cc1 (stereo not drawn) [Example 5, 2-{4-[3-(2-Methoxyphenoxyethylamino)-2-hydroxypropoxyl]phenyl}-3-(3,5-dimethoxyphenyl)acrylic acid methyl ester] | 37%
4 | 5.2 µM | COC(=O)/C(=C/c1cc(OC)c(OC)c(OC)c1)c1ccc(OCC(O)CNCc2ccc(OC)cc2OC)cc1 (stereo not drawn) [Example 6, 2-{4-[3-(2,4-Dimethoxybenzylamino)-2-hydroxypropoxyl]phenyl}-3-(3,4,5-trimethoxyphenyl)acrylic acid methyl ester] | 73%
5 | 2.2 µM | COC(=O)/C(=C/c1ccc(F)c(OC)c1)c1ccc(OCC(O)CNCCOc2ccccc2OC)cc1 (stereo not drawn) [Example 7, 2-{4-[3-(2-Methoxyphenoxyethylamino)-2-hydroxypropoxyl]phenyl}-3-(4-fluoro-3-methoxyphenyl)acrylic acid methyl ester] | 58%
6 | 3.6 µM | COC(=O)/C(=C/c1cc(OC)c(OC)c(OC)c1)c1ccc(OCC(O)CNCc2ccc(OC(F)F)cc2)cc1 (stereo not drawn) [Example 8, 2-{4-[3-(4-Difluoromethoxybenzylamino)-2-hydroxypropoxyl]phenyl}-3-(3,4,5-trimethoxyphenyl)acrylic acid methyl ester] | 44%
7 | > 100 µM | COC(=O)/C(=C/c1ccc(F)c(OC)c1)c1ccc(OCC(O)CNCc2ccc(OC)cc2OC)cc1 (stereo not drawn) [Example 9, 2-{4-[3-(2,4-Dimethoxybenzylamino)-2-hydroxypropoxyl]phenyl}-3-(4-fluoro-3-methoxyphenyl)acrylic acid methyl ester] | 34%
8 | 35.3 µM | COC(=O)/C(=C/c1ccc(OCC(O)CNCc2ccc(F)cc2)cc1)c1ccccc1 (stereo not drawn) [Example 10, 3-{4-[3-(4-Fluorobenzylamino)-2-hydroxypropoxyl]phenyl}-2-phenylacrylic acid methyl ester] | 4.5%
9 | 37.3 µM | COC(=O)/C(=C/c1cc(OC)c(OC)c(OC)c1)c1ccc(OCC(O)CNCCOc2ccccc2OC)cc1 (stereo not drawn) [Example 11, 2-{4-[3-(2-Methoxyphenoxyethylamino)-2-hydroxypropoxyl]phenyl}-3-(3,4,5-trimethoxyphenyl)acrylic acid methyl ester] | 29%
10 | 3 µM | COC(=O)/C(=C/c1ccc(OCC(O)CNCc2ccc(OC)cc2OC)cc1)c1ccc(OC)cc1 (stereo not drawn) [Example 12, 3-{4-[3-(2,4-Dimethoxybenzylamino)-2-hydroxypropoxyl]phenyl}-2-(4-methoxyphenyl)acrylic acid methyl ester] | 55%
11 | 3.5 µM | COC(=O)/C(=C/c1ccc(OC)c(OC)c1)c1ccc(OCC(O)CNCc2ccc(OC)cc2OC)cc1 (stereo not drawn) [Example 13, 2-{4-[3-(2,4-Dimethoxybenzylamino)-2-hydroxypropoxyl]phenyl}-3-(3,4,-dimethoxyphenyl)acrylic acid methyl ester] | 67%
12 | 4 µM | COC(=O)/C(=C/c1ccc(OC)c(OC)c1)c1ccc(OCC(O)CNCCOc2ccccc2OC)cc1 (stereo not drawn) [Example 14, 2-{4-[3-(2-Methoxyphenoxyethylamino)-2-hydroxypropoxyl]phenyl}-3-(3,4,-dimethoxyphenyl)acrylic acid methyl ester] | 38%
13 | 2.8 µM | COC(=O)/C(=C/c1ccc(F)c(F)c1)c1ccc(OCC(O)CNCc2ccc(OC)cc2OC)cc1 (stereo not drawn) [Example 15, 2-{4-[3-(2,4-Dimethoxybenzylamino)-2-hydroxypropoxyl]phenyl}-3-(3,4-difluorophenyl)acrylic acid methyl ester] | 44%
14 | 3.1 µM | COC(=O)/C(=C/c1ccc(OCC(O)CNCc2ccc(OC)cc2OC)cc1)c1ccccc1 (stereo not drawn) [Example 16, 3-{4-[3-(2,4-Dimethoxybenzylamino)-2-hydroxypropoxyl]phenyl}-2-phenyl acrylic acid methyl ester] | 68%
15 | 3.4 µM | COC(=O)/C(=C/c1ccccc1)c1ccc(OCC(O)CNCc2ccc(OC)cc2OC)cc1 (stereo not drawn) [Example 17, 2-{4-[3-(2,4-Dimethoxybenzylamino)-2-hydroxypropoxy]phenyl}-3-phenylacrylic acid methyl ester] | 25%
16 | 5.3 µM | COC(=O)/C(=C/c1cc(OC)cc(OC)c1)c1ccc(OCC(O)CNCc2ccccc2)cc1 (stereo not drawn) [Example 18, 2-{4-[3-(Benzylamino)-2-hydroxypropoxy]phenyl}-3-(3,5-dimethoxyphenyl)acrylic acid methyl ester] | 25%
17 | 4.9 µM | COC(=O)/C(=C/c1ccc(F)c(C)c1)c1ccc(OCC(O)CNCCOc2ccccc2OC)cc1 (stereo not drawn) [Example 19, 2-{4-[3-(2-Methoxyphenoxyethylamino)-2-hydroxypropoxy]phenyl}-3-(4-fluoro-3-methylphenyl)acrylic acid methyl ester] | 15.9%
18 | 16.8 µM | COC(=O)/C(=C/c1cc(OC)cc(OC)c1)c1ccc(OCC(O)CNCc2ccc(F)cc2)cc1 (stereo not drawn) [Example 20, 2-{4-[3-(4-Fluorobenzylamino)-2-hydroxypropoxy]phenyl}-3-(3,5-dimethoxyphenyl)acrylic acid methyl ester] | 0%
19 | 13.1 µM | COC(=O)/C(=C/c1ccc(F)c(C)c1)c1ccc(OCC(O)CNCc2ccccc2)cc1 (stereo not drawn) [Example 21, 2-{4-[3-(Benzylamino)-2-hydroxypropoxy]phenyl}-3-(4-fluoro-3-methylphenyl)acrylic acid methyl ester] | 22.8%
20 | 16.1 µM | COC(=O)/C(=C/c1ccc(Cl)cc1)c1ccc(OCC(O)CNCc2ccc(OC)cc2OC)cc1 (stereo not drawn) [Example 22, 2-{4-[3-(2,4-Dimethoxybenzylamino)-2-hydroxypropoxy]phenyl}-3-(4-chlorophenyl)acrylic acid methyl ester] | 59.8%
21 | 11.7 µM | COC(=O)/C(=C/c1ccc(SC)cc1)c1ccc(OCC(O)CNCCOc2ccccc2OC)cc1 (stereo not drawn) [Example 23, 2-{4-[3-(2-Methoxyphenoxy-ethylamino)-2-hydroxy-propoxy]-phenyl}-3-(4-(methylthio)phenyl)-acrylic acid methyl ester] | 54.2%
22 | 15.5 µM | COC(=O)/C(=C/c1ccccc1)c1ccc(OCC(O)CNCc2ccccc2)cc1 (stereo not drawn) [Example 24, 2-{4-[3-(Benzylamino)-2-hydroxypropoxy]phenyl}-3-phenylacrylic acid methyl ester] | 0%
23 | 27.8 µM | COC(=O)/C(=C/c1ccccc1)c1ccc(OCC(O)CNCCOc2ccccc2OC)cc1 (stereo not drawn) [Example 25, 2-{4-[3-(2-Methoxyphenoxyethylamino)-2-hydroxypropoxy]phenyl}-3-phenylacrylic acid methyl ester] | 20.5%
24 | 12.1 µM | COC(=O)/C(=C/c1ccc(F)cc1)c1ccc(OCC(O)CNCCOc2ccccc2OC)cc1 (stereo not drawn) [Example 26, 2-{4-[3-(2-Methoxyphenoxyethylamino)-2-hydroxypropoxy]phenyl}-3-(4-fluorophenyl)acrylic acid methyl ester] | 36.2%
25 | 6.5 µM | COC(=O)/C(=C/c1ccc(Cl)cc1)c1ccc(OCC(O)CNCc2ccccc2)cc1 (stereo not drawn) [Example 27, 2-{4-[3-(Benzylamino)-2-hydroxypropoxy]phenyl}-3-(4-chlorophenyl)acrylic acid methyl ester] | 32.7%
26 | 1.3 µM | COC(=O)/C(=C/c1ccc(SC)cc1)c1ccc(OCC(O)CNCc2ccc(OC)cc2OC)cc1 (stereo not drawn) [Example 28, 2-{4-[3-(2,4-Dimethoxybenzylamino)-2-hydroxypropoxy]phenyl}-3-(4-(methylthio)phenyl)acrylic acid methyl ester] | 78.5%
